Test results taken from publication PMC10247784, “Physiological activation of human and mouse bitter taste receptors by bile acids” (Communications Biology, 2023).
“And” between values parts separate entries of the source, which are not always exact repeats. Equal values may be shown once.

Biological target: T1, human TAS2R1 (Homo sapiens, UniProt Q9NYW7)
T1 construct: expressed in transfected cells; host or cells: HEK293T-Gα16gust44
T1 sequence (Q9NYW7 1-299): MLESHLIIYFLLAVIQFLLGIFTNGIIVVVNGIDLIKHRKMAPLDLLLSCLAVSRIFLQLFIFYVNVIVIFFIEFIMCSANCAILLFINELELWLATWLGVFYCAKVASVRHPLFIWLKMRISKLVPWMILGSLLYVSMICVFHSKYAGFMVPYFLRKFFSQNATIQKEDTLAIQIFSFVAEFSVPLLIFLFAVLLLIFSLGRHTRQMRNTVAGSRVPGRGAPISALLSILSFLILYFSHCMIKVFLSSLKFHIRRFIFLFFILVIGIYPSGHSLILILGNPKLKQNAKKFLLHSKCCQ
Assay: Calcium imaging assay (FLIPR), HEK293T-Gα16gust44 cells transfected with human TAS2R1
Type: cell-based
Method: This set of bile acids was chosen because of their commercial availability in high purities, their diversity within the class of bile acids and their previous detection and quantitation in human blood. Stock solutions were prepared in DMSO.
As basal growth medium for the HEK293T-Gα16gust44 cell line[17],[59] served Dulbecco’s modified eagle medium (DMEM) (Thermo Fisher Scientific, Darmstadt, Germany) supplemented with 10 % fetal bovine serum (Sigma-Aldrich, Steinheim, Germany), 2 mM L-glutamine (Sigma-Aldrich, Steinheim, Germany), 100 units/ml penicillin (Sigma Aldrich, Steinheim, Germany) and 100 µg/ml streptomycin (Sigma Aldrich, Steinheim, Germany). Growth conditions were 37 °C, 5 % CO2 and saturated air-humidity[60].
HEK293T-Gα16gust44 cells were seeded on poly-D-lysine (10 µg/ml) coated 96-well plates to reach a confluence of 40-60 % the next day. For transient transfection 150 ng of plasmid DNA containing the receptor of interest and 0.3 µl lipofectamine 2000 (Thermo Fisher Scientific, Darmstadt, Germany) per well were used and transfection took place according to the manual of lipofectamine 2000. […] The empty vector DNA (mock) was transfected as negative control[14],[41].
Cells were loaded using the calcium-sensitive fluorescent dye Fluo-4-AM (Abcam, Cambridge, Great Britain) in the presence of 2.5 mM probenecid (Sigma-Aldrich, Steinheim, Germany) the day after transfection[13],[41]. 1 h after loading, cells were washed with C1 buffer using a BioTek Cell Washer, incubated in the dark for half an hour and washed again. For automated agonist application and measurement of fluorescence changes, a FLIPR^TETRA device (Molecular Devices, San José, United States) was used. Viability of cells was tested by application of 100 nM Somatostatin 14 (Bachem, Bubendorf, Switzerland)[42].
Measured data were negative control corrected by subtracting the signal of the mock-transfected cells and exported to Microsoft Excel using the FLIPR software ScreenWorks 4.2. In Microsoft Excel software, standardization of maximum fluorescence intensities to the basal fluorescence and normalization to the buffer-only control was done to calculate the relative fluorescence changes (ΔF/F).
Initial screening experiments performed in duplicate wells were confirmed by at least one replication and representative traces were selected for display. All dose-response relationships were determined by three independent experiments (biological replicates) performed in duplicates (technical replicates). Threshold concentrations, defined as lowest substance concentrations leading to statistically significant elevated fluorescence changes in receptor-transfected cells compared with empty vector-transfected cells, were determined using SigmaPlot with Student’s t-test to evaluate statistical significance (p < 0.01).

Efficacy = maximal amplitude (ΔF/F) (TAS2R1, bile acids, mean): 0.1325 | Efficacy (maximal amplitude ΔF/F), individual data points (TAS2R1, bile acids, single replicates, listed as GCA): 0.1311 and 0.1247 and 0.1416 | RLU (Time 0 s (second time grid)): 0 RLU | RLU (Time 2 s): 1.34 RLU | RLU (Time 4 s): -10.9328 RLU | RLU (Time 6 s): -2.093 RLU | RLU (Time 8 s): -18.797 RLU | RLU (Time 12 s): -1.765 RLU | RLU (Time 14 s): -6.3 RLU | RLU (Time 16 s): 4.111 RLU | RLU (Time 18 s): 11.3452 RLU | RLU (Time 18.781 s): -8.381 RLU | RLU (Time 20.781 s): -65.4734 RLU | RLU (Time 22.781 s): -29.3432 RLU | RLU (Time 24.781 s): 49.9011 RLU | RLU (Time 26.781 s): 96.1968 RLU | RLU (Time 28.781 s): 184.074 RLU | RLU (Time 30.781 s): 256.685 RLU | RLU (Time 32.781 s): 311.082 RLU | RLU (Time 34.781 s): 379.127 RLU | RLU (Time 36.781 s): 406.227 RLU | RLU (Time 38.781 s): 484.171 RLU | RLU (Time 40.781 s): 488.749 RLU | RLU (Time 42.781 s): 562.235 RLU | RLU (Time 44.781 s): 571.006 RLU | RLU (Time 46.781 s): 594.154 RLU | RLU (Time 48.781 s): 570.694 RLU | RLU (Time 50.781 s): 587.34 RLU | RLU (Time 52.781 s): 583.343 RLU | RLU (Time 54.781 s): 607.705 RLU | RLU (Time 56.781 s): 600.065 RLU | RLU (Time 58.781 s): 617.139 RLU | RLU (Time 60.781 s): 617.101 RLU | RLU (Time 62.781 s): 619.569 RLU | RLU (Time 64.781 s): 627.557 RLU | RLU (Time 66.781 s): 602.719 RLU | RLU (Time 68.781 s): 631.839 RLU | RLU (Time 70.781 s): 609.358 RLU | RLU (Time 72.781 s): 606.454 RLU | RLU (Time 74.781 s): 603.445 RLU | RLU (Time 76.781 s): 621.396 RLU | RLU (Time 78.781 s): 618.749 RLU | RLU (Time 80.781 s): 605.728 RLU | RLU (Time 82.781 s): 588.632 RLU | RLU (Time 84.781 s): 592.001 RLU | RLU (Time 86.781 s): 573.367 RLU | RLU (Time 88.781 s): 587.481 RLU | RLU (Time 90.781 s): 582.427 RLU | RLU (Time 92.781 s): 543.758 RLU | RLU (Time 94.781 s): 568.088 RLU | RLU (Time 96.781 s): 550.308 RLU | RLU (Time 98.781 s): 566.578 RLU | RLU (Time 100.781 s): 550.017 RLU | RLU (Time 102.781 s): 549.55 RLU | RLU (Time 104.781 s): 541.673 RLU | RLU (Time 106.781 s): 534.917 RLU | RLU (Time 108.781 s): 501.47 RLU | RLU (Time 110.781 s): 477.052 RLU | RLU (Time 112.781 s): 487.765 RLU | RLU (Time 114.781 s): 493.52 RLU | RLU (Time 116.781 s): 450.802 RLU | RLU (Time 118.781 s): 454.358 RLU | RLU (Time 120.781 s): 451.439 RLU | RLU (Time 122.781 s): 430.145 RLU | RLU (Time 124.781 s): 453.415 RLU | RLU (Time 126.781 s): 442.632 RLU | RLU (Time 128.781 s): 400.74 RLU | RLU (Time 130.781 s): 403.872 RLU | RLU (Time 132.781 s): 393.75 RLU | RLU (Time 134.781 s): 397.711 RLU | RLU (Time 136.781 s): 397.074 RLU | RLU (Time 137.547 s): 371.152 RLU | RLU (Time 143.547 s): 348.952 RLU | RLU (Time 149.547 s): 319.38 RLU | RLU (Time 155.547 s): 291.839 RLU | RLU (Time 161.547 s): 291.362 RLU | RLU (Time 167.547 s): 251.037 RLU | RLU (Time 173.547 s): 217.997 RLU | RLU (Time 179.547 s): 213.168 RLU | RLU (Time 185.547 s): 202.093 RLU | RLU (Time 191.547 s): 176.088 RLU | RLU (Time 197.547 s): 167.876 RLU | RLU (Time 203.547 s): 164.283 RLU | RLU (Time 209.547 s): 146.788 RLU | RLU (Time 215.547 s): 144.843 RLU | RLU (Time 221.547 s): 126.114 RLU | RLU (Time 227.547 s): 89.1702 RLU | RLU (Time 233.547 s): 107.472 RLU | RLU (Time 239.547 s): 82.2731 RLU | RLU (Time 245.547 s): 57.4201 RLU | RLU (Time 293.547 s): 58.9267 RLU | RLU (Time 299.547 s): 40.6004 RLU | RLU (calcium trace, sheet TAS2R1, Time 305.547 s): 58.5113 RLU | RLU (calcium trace, sheet TAS2R1, Time 311.547 s): 53.2069 RLU | RLU (calcium trace, sheet TAS2R1, Time 317.547 s): 43.3091 RLU | RLU (calcium trace, sheet TAS2R1, Time 323.547 s): 43.6147 RLU | RLU (calcium trace, sheet TAS2R1, Time 329.547 s): 33.081 RLU | RLU (calcium trace, sheet TAS2R1, Time 335.547 s): 47.1496 RLU | RLU (calcium trace, sheet TAS2R1, Time 341.547 s): 32.1596 RLU | RLU (calcium trace, sheet TAS2R1, Time 347.547 s): 48.6454 RLU | RLU (calcium trace, sheet TAS2R1, Time 353.547 s): 51.461 RLU | RLU (calcium trace, sheet TAS2R1, Time 359.547 s): 49.6251 RLU | Δ F/F (conc. 0,01 mM, TAS2R1): 0.004283 | Δ F/F (conc. 0,1 mM, TAS2R1): 0.04907 | Δ F/F (conc. 0,03 mM, TAS2R1): 0.009584 | Δ F/F (conc. 0,3 mM, TAS2R1): 0.1325 | Δ F/F (conc. 0,001 mM, TAS2R1): 0.006338 | Δ F/F (conc. 0,003 mM, TAS2R1): -0.001187 | Activation threshold concentration TAS2R1 (lowest concentration with significantly increased fluorescence vs empty vector (p < 0.01)): 100 µM and 100.00 µM
SMILES: C[C@H](CCC(=O)NCC(=O)O)[C@H]1CC[C@H]2[C@@H]3[C@H](O)C[C@@H]4C[C@H](O)CC[C@]4(C)[C@H]3C[C@H](O)[C@]12C [Glycocholic Acid, glycocholic acid]
